Where “and” joins values, the source holds several entries; their conditions need not be identical. Identical values can stand only once. Inconclusive results and toxic doses are left out. Rule as the data show it: active = T/C of 150% or more; inactive = T/C below 125%.
System: L1210 leukemia ip in BDF1 mice, survival T/C
Experiment: NCI In Vivo Anticancer Drug Screen. Data for tumor model L1210 Leukemia (intraperitoneal) in B6D2F1 (BDF1) mice
Conditions: endpoint: mean survival time, higher = longer survival
Procedure, shortened: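 Read-out is survival time, reported as the treated-group measurement over the vehicle-control measurement.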

[1] = dose: 100.0 mg/kg/injection, schedule: Q01DX009 (ip), vehicle: saline
[2] = dose: 100.0 mg/kg/injection, schedule: Q04DX003 (ip), vehicle: saline
[3] = dose: 200.0 mg/kg/injection, schedule: Q01DX009 (ip), vehicle: saline
[4] = dose: 200.0 mg/kg/injection, schedule: Q04DX003 (ip), vehicle: saline
[5] = dose: 400.0 mg/kg/injection, schedule: Q04DX003 (ip), vehicle: saline
[6] = dose: 100.0 mg/kg/injection, schedule: Q04DX002 (ip), vehicle: Klucel (hydroxypropylcellulose) (HPC)
[7] = dose: 100.0 mg/kg/injection, schedule: Q04DX003 (ip), vehicle: Klucel (hydroxypropylcellulose) (HPC)
[8] = dose: 200.0 mg/kg/injection, schedule: Q04DX003 (ip), vehicle: Klucel (hydroxypropylcellulose) (HPC)
[9] = dose: 400.0 mg/kg/injection, schedule: Q01DX009 (ip), vehicle: saline
[10] = dose: 400.0 mg/kg/injection, schedule: Q04DX003 (ip), vehicle: Klucel (hydroxypropylcellulose) (HPC)
[11] = dose: 100.0 mg/kg/injection, schedule: Q01DX009 (ip), vehicle: Klucel (hydroxypropylcellulose) (HPC)
[12] = dose: 100.0 mg/kg/injection, schedule: Q04DX003 (ip), vehicle: other
[13] = dose: 200.0 mg/kg/injection, schedule: Q01DX009 (ip), vehicle: Klucel (hydroxypropylcellulose) (HPC)
[14] = dose: 200.0 mg/kg/injection, schedule: Q04DX003 (ip), vehicle: other
[15] = dose: 400.0 mg/kg/injection, schedule: Q01DX009 (ip), vehicle: Klucel (hydroxypropylcellulose) (HPC)
[16] = dose: 400.0 mg/kg/injection, schedule: Q04DX003 (ip), vehicle: other
[17] = dose: 200.0 mg/kg/injection, schedule: Q04DX002 (ip), vehicle: Klucel (hydroxypropylcellulose) (HPC)
[18] = dose: 100.0 mg/kg/injection, schedule: Q01DX001 (ip), vehicle: saline
[19] = dose: 200.0 mg/kg/injection, schedule: Q01DX001 (ip), vehicle: saline
[20] = dose: 400.0 mg/kg/injection, schedule: Q01DX001 (ip), vehicle: saline
[21] = dose: 100.0 mg/kg/injection, schedule: Q04DX003 (ip), vehicle: saline with Tween-80
[22] = dose: 200.0 mg/kg/injection, schedule: Q04DX003 (ip), vehicle: saline with Tween-80
[23] = dose: 400.0 mg/kg/injection, schedule: Q04DX003 (ip), vehicle: saline with Tween-80

Measured: T/C

O=C1OC(=O)C2CCC12 (stereo not given)
inactive: dose: 75.0 mg/kg/injection, schedule: Q01DX001 (ip), vehicle: saline 93 % of control | [1] 91 % of control | [2] 98 % of control | dose: 150.0 mg/kg/injection, schedule: Q01DX001 (ip), vehicle: saline 101 % of control | [3] 93 % of control | [4] 101 % of control | dose: 300.0 mg/kg/injection, schedule: Q01DX001 (ip), vehicle: saline 112 % of control | [5] 98 % of control

CCN(CC)C(=O)CCC(=O)O
inactive: dose: 100.0 mg/kg/injection, schedule: Q04DX002 (ip), vehicle: saline 89 % of control | dose: 200.0 mg/kg/injection, schedule: Q04DX002 (ip), vehicle: saline 103 % of control | dose: 400.0 mg/kg/injection, schedule: Q04DX002 (ip), vehicle: saline 103 % of control

CC(=O)Oc1ccc2c(c1N=NN(C)C)CCC1C2CCC2(C)C(=O)CCC12 (stereo not given)
inactive: dose: 100.0 mg/kg/injection, schedule: Q01DX001 (ip), vehicle: Klucel (hydroxypropylcellulose) (HPC) 98 % of control | dose: 200.0 mg/kg/injection, schedule: Q01DX001 (ip), vehicle: Klucel (hydroxypropylcellulose) (HPC) 104 % of control

O=c1ccn(CCCOc2ccccc2)c(=O)[nH]1
inactive: dose: 25.0 mg/kg/injection, schedule: Q04DX002 (ip), vehicle: Klucel (hydroxypropylcellulose) (HPC) 102 % of control | dose: 50.0 mg/kg/injection, schedule: Q04DX002 (ip), vehicle: Klucel (hydroxypropylcellulose) (HPC) 102 % of control | [6] 106 % of control

N/N=C(/C=N/N)C(O)CO (stereo not given)
inactive: dose: 25.0 mg/kg/injection, schedule: Q01DX001 (ip), vehicle: saline with Tween-80 95 % of control | dose: 50.0 mg/kg/injection, schedule: Q01DX001 (ip), vehicle: saline with Tween-80 98 % of control | dose: 100.0 mg/kg/injection, schedule: Q01DX001 (ip), vehicle: saline with Tween-80 89 % of control and 92 % of control | dose: 400.0 mg/kg/injection, schedule: Q01DX001 (ip), vehicle: saline with Tween-80 92 % of control

CCOC(=O)CC(N)C(=O)OCC (stereo not given)
inactive: [1] 98 % of control | [7] 99 % of control | [2] 88 % of control | [3] 95 % of control | [8] 100 % of control | [4] 93 % of control | [9] 97 % of control | [10] 87 % of control | [5] 102 % of control

O=C(c1ccc(F)cc1)c1ccc2ccccc2c1
inactive: [11] 98 % of control | [12] 97 % of control | [13] 95 % of control | [14] 94 % of control | [15] 92 % of control | [16] 94 % of control

Cc1cc(N(C)C)nc(N(C)C)n1
inactive: dose: 100.0 mg/kg/injection, schedule: Q01DX001 (ip), vehicle: other 93 % of control | [12] 103 % of control | dose: 200.0 mg/kg/injection, schedule: Q01DX001 (ip), vehicle: other 101 % of control | [14] 97 % of control | dose: 250.0 mg/kg/injection, schedule: Q01DX Z (ip), vehicle: methylcellulose (MC) 100 % of control | dose: 375.0 mg/kg/injection, schedule: Q01DX Z (ip), vehicle: methylcellulose (MC) 94 % of control | dose: 400.0 mg/kg/injection, schedule: Q01DX001 (ip), vehicle: other 91 % of control | [16] 102 % of control | dose: 500.0 mg/kg/injection, schedule: Q01DX Z (ip), vehicle: methylcellulose (MC) 96 % of control

COc1cc(OC)c2c(c1)-n1cccc1C2=O
inactive: [6] 101 % of control | [17] 104 % of control | dose: 400.0 mg/kg/injection, schedule: Q04DX002 (ip), vehicle: Klucel (hydroxypropylcellulose) (HPC) 93 % of control

COC(=O)c1ccc(C(=O)OC)c(NC(=O)CC(=O)c2ccc([N+](=O)[O-])cc2)c1
inactive: [11] 88 % of control | [7] 101 % of control | [13] 91 % of control | [8] 90 % of control | [15] 91 % of control | [10] 96 % of control

COc1ccc(-n2cnnn2)cc1
inactive: [18] 103 % of control | [19] 103 % of control | [20] 103 % of control

O=C(NCCCN1CCOCC1)C(Oc1ccccc1)Oc1ccccc1
inactive: dose: 6.25 mg/kg/injection, schedule: Q01DX009 (ip), vehicle: Klucel (hydroxypropylcellulose) (HPC) 91 % of control | dose: 12.5 mg/kg/injection, schedule: Q01DX009 (ip), vehicle: Klucel (hydroxypropylcellulose) (HPC) 98 % of control | dose: 25.0 mg/kg/injection, schedule: Q01DX009 (ip), vehicle: Klucel (hydroxypropylcellulose) (HPC) 100 % of control | dose: 50.0 mg/kg/injection, schedule: Q01DX009 (ip), vehicle: Klucel (hydroxypropylcellulose) (HPC) 89 % of control

NS(=O)(=O)c1cc([N+](=O)[O-])ccc1Cl
inactive: [21] 108 % of control | [22] 111 % of control | [23] 95 % of control

CCCCCCCCCCCCOc1ccccc1C(=O)O
inactive: dose: 100.0 mg/kg/injection, schedule: Q01DX009 (ip), vehicle: saline sonified 98 % of control | [7] 97 % of control | dose: 200.0 mg/kg/injection, schedule: Q01DX009 (ip), vehicle: saline sonified 116 % of control | [8] 89 % of control | dose: 400.0 mg/kg/injection, schedule: Q01DX009 (ip), vehicle: saline sonified 108 % of control | [10] 99 % of control

COC(=O)c1cc([N+](=O)[O-])c(Br)s1
inactive: [7] 93 % of control

O=C(O)/C(=C\c1ccccc1Cl)c1ccccc1
inactive: [6] 94 % of control | [17] 90 % of control

Cc1ccc(S(=O)(=O)N(C)c2ccc(C#N)c(Cl)c2Cl)cc1
inactive: [21] 98 % of control | [22] 96 % of control | [23] 98 % of control

Cc1cccc2c3c([nH]c12)CCSC3
inactive: [21] 108 % of control | [22] 105 % of control | [23] 111 % of control

COc1c(NS(=O)(=O)c2ccccc2)cc2c3c(cccc13)CC2
inactive: [21] 97 % of control | [22] 93 % of control | [23] 101 % of control

CC(=O)OCC1OC(Sc2cc(Cl)ccc2Cl)C(OC(C)=O)C(OC(C)=O)C1OC(C)=O (stereo not given)
inactive: [18] 100 % of control | [19] 94 % of control | [20] 100 % of control

O=C1CCc2cccc(O)c2N1
inactive: [18] 103 % of control | [19] 103 % of control

O=S(=O)(O)c1cccc2cccc(Cl)c12
inactive: dose: 100.0 mg/kg/injection, schedule: Q01DX009 (ip), vehicle: saline with Tween-80 99 % of control | [1] 95 % of control | [2] 109 % of control | dose: 200.0 mg/kg/injection, schedule: Q01DX009 (ip), vehicle: saline with Tween-80 94 % of control | [3] 97 % of control | [4] 105 % of control | dose: 400.0 mg/kg/injection, schedule: Q01DX009 (ip), vehicle: saline with Tween-80 96 % of control | [9] 103 % of control | [5] 115 % of control
